According to paper PMC10060354, “Discovery of a small molecule ligand of FRS2 that inhibits invasion and tumor growth” (Cellular Oncology, 2022):
“And” between values parts separate entries of the source, which are not always exact repeats. Equal entries are not always repeated. Where two headings read alike, the source gives them in different places. Each block holds one compound with its values, some of them ahead of it.

Legend:
[1] = Cell viability (cytotoxicity, MTT) using HepG2; type: cell-based, human; settings: human, HepG2 cells, 72 h, summary sheet, read-out: MTT (AC50) Conc at which 50% of maximum efficacy is reached
Method in brief: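 Compounds were tested at 8 concentrations in triplicate on HepG2 cells plated 24 h beforehand, with 72 h exposure in 1% DMSO medium. MTT was loaded 1 h before the end, solubilized in DMSO and read at 570 nm. Minimum effective concentration is the lowest concentration exceeding the significance level, given dose-response or two consecutive points above it.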

[2] = system: FRS2 (Y436) phosphorylation; assay: Immunoblotting, FRS2 phosphorylation; type: cell-based, human; settings: RT-112 cells
Method: (§1) Cells were serum starved o.n. and 10 µM compound or 1 µM (BGJ398) were added 3 h before stimulation with 100 ng/ml bFGF for 15 min. Cells were lysed in RIPA buffer containing protease inhibitor cocktail and lysates resolved by SDS-PAGE. Membranes were probed with primary antibodies against phospho-FRS2, FRS2, phospho-ERK1/2, ERK1/2, pAKT, AKT and tubulin. Integrated density of immuno-reactive bands was quantified using Adobe Photoshop CS3. Integrated densities of phospho bands relative to non-phospho bands of same protein were calculated and plotted as fold-change relative to untreated control conditions. Compounds and BGJ398 were added in DMSO and corresponding DMSO concentrations were used in control samples.

ERK (pT202/Y204) = assay: Immunoblotting, ERK phosphorylation; type: cell-based, human; settings: DAOY, SW780, M059K, SKOV3, AGS, DMS114 and RT-112 cells; 10 µM compound or 1 µM BGJ398
Method: as §1

[3] = system: bFGF-sensitive (M059K, RT-112, SW780) and bFGF-insensitive (SKOV3, AGS and HCT116) cell lines; assay: SIA, collagen I invasion in panel of human cancer cell models; type: cell-based; settings: 10 µM
Method: 1000—2500 cells/well in 100 μl were seeded in 96 well Corning® Spheroid microplate (CLS4520, Sigma-Aldrich) or in cell-repellent 96 well microplate (650,790, Greiner Bio-one). SIA and analysis was performed as described before. In brief: After spheroid formation (24 – 72 h after seeding), 70 µl medium was removed and replaced with the collagen mixture (2.5 mg/ml Pure Col Collagen I (Advanced Biomatrix)), DMEM 1x (from 10 × stock, Sigma, D2429) and 0.4% Sodium bicarbonate (Sigma, S8761)), resulting in a final collagen concentration of 1.75 mg/ml. Embedded spheroids were stimulated with bFGF (100 ng/ml if not otherwise stated), HGF (30 ng /ml) or EGF (20 ng/ml) and distance of invaded cells quantified 24 – 48 h after embedding. Compounds and BGJ398 were added in Dimethylsulfoxid (DMSO) and corresponding DMSO concentrations were used in control samples.

[4] = In vivo bioavailability / PK after 1 mg/kg IV or 10 mg/kg PO; parameters: species or system Male ICR mice
Method: In vivo bioavailability studies were performed by Pharmacology Discovery Services Taiwan, Ltd., (New Taipei City, Taiwan). Male ICR mice weighing 20—30 g were provided by BioLasco Taiwan (under Charles River Laboratories Licensee). Animals were acclimated for 3 days prior to use and were confirmed with good health. All animals were maintained in a hygienic environment with controlled temperature (20—24 °C), humidity (30%—70%) and 12 h light/dark cycles. Free access to sterilized standard lab diet [MFG (Oriental Yeast Co., Ltd., Japan)] and autoclaved tap water. A pharmacokinetic (PK) study was performed in male ICR mice following intravenous (IV) and oral (PO) administration of compound 7 and E12 and IV administration of the test compound 3.14. The three test compounds (7, E12 and 3.14) were formulated in 1% dimethyl sulfoxide (DMSO)/10% Solutol® HS-15/ phosphate buffered saline (PBS) at 0.2 mg/mL and 1 mg/mL for IV and PO administration, respectively. The dosing volumes were 5 ml/kg for IV and 10 ml/kg for PO. The dose was 1 mg/kg for IV and 10 mg/kg for PO routes.

[5] = 10 mg/kg PO, time 0.167 h, mouse#1-3
[6] = 10 mg/kg PO, time 0.5 h, mouse#1-3
[7] = 10 mg/kg PO, time 1 h, mouse#1-3
[8] = 10 mg/kg PO, time 2 h, mouse#1-3
[9] = 10 mg/kg PO, time 4 h, mouse#1-3
[10] = 10 mg/kg PO, time 6 h, mouse#1-3
[11] = 10 mg/kg PO, time 8 h, mouse#1-3
[12] = 10 mg/kg PO, time 24 h, mouse#1-3
[13] = male, ICR, mouse, plasma, 1 mg/kg, IV
[14] = male, ICR, mouse, plasma, 10 mg/kg, PO
[15] = mg/kg IV, time 0.167 h, mouse#1-3
[16] = mg/kg IV, time 0.5 h, mouse#1-3

Structure (SMILES): O=[N+]([O-])c1c(Cl)cc(O)c2c1C1C=CCC1C(c1ccc(Cl)cc1Cl)N2 (centres unmarked) [Compound 8]
AC50 at 72 h [1]: 12.4 µM

Structure (SMILES): N#Cc1c(Cl)cc(O)c2c1C1C=CCC1C(c1ccc(Cl)cc1)N2 (centres unmarked) [Compound 14]
basal and bFGF-induced phosphorylation of FRS2Y436 (result in words) [2]: reduced basal and bFGF-induced phosphorylation
basal and bFGF-induced phosphorylation of ERK (result in words) (ERK (pT202/Y204)): inhibited basal and bFGF-induced phosphorylation
collagen I invasion across cancer cell lines (result in words) [3]: inhibited collagen I invasion in both bFGF-sensitive and bFGF-insensitive cell lines
AC50 at 72 h [1]: 5.24 µM

AUC Extr (%) ([4]; 1 mg/kg, IV): 0.5%
in vivo PK raw, level per mouse [4, 5]: 13 and 10 and 15
in vivo PK raw, level per mouse (µM) [4, 5]: 0.02964 µM and 0.04446 µM
in vivo PK raw, level per mouse [4, 6]: 16 and 11 and 3
in vivo PK raw, level per mouse (µM) [4, 6]: 0.04742 µM and 0.0326 µM and 0.008892 µM
in vivo PK raw, level per mouse [4, 7]: 1 and 2 and 10
in vivo PK raw, level per mouse [4, 8]: 3 and 0 and 2
in vivo PK raw, level per mouse (µM) [4, 8]: 0.008892 µM and 0 µM and 0.005928 µM
in vivo PK raw, level per mouse [4, 9]: 5 and 2 (2×)
in vivo PK raw, level per mouse (µM) [4, 9]: 0.01482 µM and 0.005928 µM (2×)
in vivo PK raw, level per mouse [4, 10]: 0 (2×) and 2
in vivo PK raw, level per mouse (µM) [4, 10]: 0 µM (2×) and 0.005928 µM
in vivo PK raw, level per mouse [4, 11]: 1
in vivo PK raw, level per mouse (µM) [4, 11]: 0.002964 µM
in vivo PK raw, level per mouse [4, 12]: 0
in vivo PK raw, level per mouse (µM) [4, 12]: 0 µM
AUC Extr (%) ([4]; 10 mg/kg, PO): 14.8%
AUC/D ([4]; 10 mg/kg, PO): 3 kg·ng·h/mL/mg
AUClast (H*ng/ml) ([4]; 10 mg/kg, PO): 22 H*ng/ml
AUC(0-t) ([4]; male, ICR, mouse, plasma, iv, 1 mg/kg, IV, read-out: AUClast): 85 ng·h/mL
concentration at 0.167 h ([4]; male, ICR, mouse, plasma, iv, 1 mg/kg, mg/kg IV, time 0.167 h, mouse#1-3, read-out: in vivo PK raw, level per mouse): 1360 nM
concentration at 0.5 h ([4]; male, ICR, mouse, plasma, iv, 1 mg/kg, mg/kg IV, time 0.5 h, mouse#1-3, read-out: in vivo PK raw, level per mouse): 305 nM
concentration at 1 h ([4]; male, ICR, mouse, plasma, iv, 1 mg/kg, mg/kg IV, time 1 h, mouse#1-3, read-out: in vivo PK raw, level per mouse): 29.6 nM
concentration at 2 h ([4]; male, ICR, mouse, plasma, iv, 1 mg/kg, mg/kg IV, time 2 h, mouse#1-3, read-out: in vivo PK raw, level per mouse): 5.93 nM
concentration at 4 h ([4]; male, ICR, mouse, plasma, iv, 1 mg/kg, mg/kg IV, time 4 h, mouse#1-3, read-out: in vivo PK raw, level per mouse): 0 nM
concentration at 6 h ([4]; male, ICR, mouse, plasma, iv, 1 mg/kg, mg/kg IV, time 6 h, mouse#1-3, read-out: in vivo PK raw, level per mouse): 0 nM
concentration at 8 h ([4]; male, ICR, mouse, plasma, iv, 1 mg/kg, mg/kg IV, time 8 h, mouse#1-3, read-out: in vivo PK raw, level per mouse): 0 nM
concentration at 24 h ([4]; male, ICR, mouse, plasma, iv, 1 mg/kg, mg/kg IV, time 24 h, mouse#1-3, read-out: in vivo PK raw, level per mouse): 0 nM
AUC(0-t) ([4]; male, ICR, mouse, plasma, iv, 1 mg/kg, mice, 1 mg/kg IV, read-out: AUClast after IV administration): 85 ng·h/mL
concentration at 0.167 h ([4]; male, ICR, mouse, plasma, oral, 10 mg/kg, 10 mg/kg PO, time 0.167 h, mouse#1-3, read-out: in vivo PK raw, level per mouse): 38.5 nM
concentration at 8 h ([4]; male, ICR, mouse, plasma, oral, 10 mg/kg, 10 mg/kg PO, time 8 h, mouse#1-3, read-out: in vivo PK raw, level per mouse): 2.96 nM
concentration at 24 h ([4]; male, ICR, mouse, plasma, oral, 10 mg/kg, 10 mg/kg PO, time 24 h, mouse#1-3, read-out: in vivo PK raw, level per mouse): 0 nM
AUC(0-t) ([4]; male, ICR, mouse, plasma, po, 10 mg/kg, mice, 10 mg/kg PO, read-out: AUClast after PO administration): 22 ng·h/mL
AUC(0-inf) [4, 13]: 86 ng·h/mL
MRT [4, 13]: 6.6 min
clearance [4, 13]: 195 mL/min/kg
half-life [4, 13]: 9 min
Vd ([4]; male, ICR, mouse, plasma, 1 mg/kg, IV, read-out: Vss): 1.3 L/kg
AUC(0-inf) [4, 14]: 26 ng·h/mL
MRT [4, 14]: 233 min
Tmax [4, 14]: 10.2 min
bioavailability [4, 14]: 3%
half-life [4, 14]: 163 min
C0 ([4]; male, ICR, mouse, mice, 1 mg/kg IV, plasma, read-out: C0 after IV administration): 762 ng/mL
Cmax ([4]; male, ICR, mouse, mice, 10 mg/kg PO, plasma, read-out: Cmax (oral bioavailability) after PO administration): 13 ng/mL
in vivo PK raw, level per mouse [4, 15]: 459 and 369 and 455
in vivo PK raw, level per mouse (µM) [4, 15]: 1.094 µM and 1.349 µM
in vivo PK raw, level per mouse [4, 16]: 103 and 104 and 127
in vivo PK raw, level per mouse (µM) [4, 16]: 0.3082 µM and 0.3764 µM
in vivo PK raw, level per mouse ([4]; mg/kg IV, time 1 h, mouse#1-3): 10 and 13 and 14
in vivo PK raw, level per mouse (µM) ([4]; mg/kg IV, time 1 h, mouse#1-3): 0.03853 µM and 0.04149 µM
in vivo PK raw, level per mouse ([4]; mg/kg IV, time 2 h, mouse#1-3): 2
in vivo PK raw, level per mouse (µM) ([4]; mg/kg IV, time 2 h, mouse#1-3): 0.005928 µM
in vivo PK raw, level per mouse ([4]; mg/kg IV, time 4 h, mouse#1-3): 0
in vivo PK raw, level per mouse (µM) ([4]; mg/kg IV, time 4 h, mouse#1-3): 0 µM
in vivo PK raw, level per mouse ([4]; mg/kg IV, time 6 h, mouse#1-3): 0
in vivo PK raw, level per mouse (µM) ([4]; mg/kg IV, time 6 h, mouse#1-3): 0 µM
in vivo PK raw, level per mouse ([4]; mg/kg IV, time 8 h, mouse#1-3): 0
in vivo PK raw, level per mouse (µM) ([4]; mg/kg IV, time 8 h, mouse#1-3): 0 µM
in vivo PK raw, level per mouse ([4]; mg/kg IV, time 24 h, mouse#1-3): 0
in vivo PK raw, level per mouse (µM) ([4]; mg/kg IV, time 24 h, mouse#1-3): 0 µM
CL1/2 after IV administration ([4]; mice, 1 mg/kg IV): 0.15 h
CL1/2 after PO administration ([4]; mice, 10 mg/kg PO): 2.71 h
Structure (SMILES): Cc1[nH]nc(-c2ccc(O)c(C)c2O)c1-c1nc2ccccc2s1 [Compound E12]
in vivo PK raw, level per mouse (µM) [4, 7]: 0.002964 µM and 0.005928 µM and 0.02964 µM
collagen I invasion across cancer cell lines (result in words) [3]: inhibited collagen I invasion only in bFGF-sensitive cell lines M059K, RT-112 and SW780
AC50 at 72 h [1]: 23.7 µM
